In patent US20080063628A1, “METHODS TO PROMOTE CELL DIFFERENTIATION” (priority 2006, published 2008):

Columns and labels:
[1] = tested on: early passage (P5) pancreatic-derived stromal cell line; test: Two sequential low dose trichostatin A treatments, gene expression by RT-PCR (Example 7); format: cell-based, human; details: for HNF (HNF-3 beta) gene expression / Insulin gene expression / Pdx-1 gene expression / glucagon gene expression: 1.25 μM 0-24 h + 96-120 h; for HNF-3 beta RT-PCR detection cycle / Pdx-1 RT-PCR detection cycle / glucagon RT-PCR detection cycle: 1.25 μM
Protocol: Several cell lines obtained from different amniotic fluid specimens (see Example 14) and pancreas donors (see Example 13) were tested with similar results. Two lines at similar passage number but derived from different amniotic fluid specimens are shown in Table VII-A and Table VII-B for this example. One of these cell lines was also used in examples 2 and 4 above. In addition, this example also contains comparison data in Table VII-C and Table VII-D for a single pancreatic-derived stromal line grown to early and late passage number.
Amniotic fluid derived cells or pancreatic-derived stromal cells were seeded into 24-well tissue culture plates at a density of 5000/cm^2 and cultured in AMNIOMAX (Invitrogen) or DMEM with 10% FBS respectively under standard cell culture conditions until confluent. After the cells reached confluency, amniotic fluid derived cells were treated at time 0 hours with a dose of 500 nM trichostatin A, and pancreatic-derived stromal cells were treated with a dose of 1.25 μM trichostatin A solubilized in DMSO and medium. At time 24 hours, cell cultures underwent a complete medium change to remove all traces of trichostatin A. At time 96 hours, cell cultures were re-fed with fresh medium and received a second dose of trichostatin A at the same concentration as used previously. […]
Samples were taken daily for RT-PCR at the times indicated in Table VII-A to D. The culture medium was removed, and samples were rinsed in PBS then collected in RLT with β-mercaptoethanol (Qiagen). RNA was purified using the RNeasy Mini Kit (Qiagen) and RNA quantity and quality were determined using a spectrophotometer. cDNA was made using the iScript cDNA synthesis kit (BioRad).
Samples of 20 ng cDNA were used in each reaction to determine the expression levels of the following genes in amniotic fluid-derived cells: Gata1, HNF-3 beta, Pdx-1, insulin, and Sox17. Similarly, samples of 20 ng cDNA were used in each reaction to determine the expression level of the following genes in pancreatic-derived cells: glucagon, HNF-3 beta, insulin and Pdx-1. Real-Time PCR was performed on the Applied Biosystems 7500, and data was analyzed using the accompanying software according to the methods described in Example 15.
Real-time PCR amplifcation and quantitative analysis. Unless otherwise stated, all reagents were purchased from Applied Biosystems. Real-time PCR reactions were performed using the ABI PRISM™ 7500 Sequence Detection System. TAQMAN™ FAST UNIVERSAL PCR MASTER MIX™ (ABI, CA) was used with 20 ng of reverse transcribed RNA in a total reaction volume of 20 μl. Each cDNA sample was run in duplicate to allow correction of pipetting errors. Primers and FAM-labeled TAQMAN™ probes were used at concentrations of 200 nM. The level of expression for each target gene was normalized using the pre-developed Applied Biosystem's human glyceraldehyde-3-phosphate dehydrogenase (GAPDH) endogenous control kit. Primers and probes were designed using either ABI PRISM PRIMER EXPRESS™ software or a pre-developed ABI gene analysis kit. For each gene, either one of the primers or the probe were designed to be exon-boundary spanning. This eliminated the possibility of the primers/probe binding to any genomic DNA present. The primer and probe sets are listed as follows: Pdx-1 (Hs00426216), Insulin (Hs00355773), glucagon (Hs00174967), and FoxA2 (HNF 3-beta) (Hs00232764). The remaining primers were designed using the PRIMERS program (ABI, CA). After an initial 95° C. incubation for 20 sec, samples were cycled 40 times in two stages: a denaturation step at 95° C. for 3 sec, followed by an annealing/extension step at 60° C. for 30 sec.
For each primer/probe set, a cycle time value was determined as the cycle number at which the fluorescence intensity of the PCR reaction reached a specific value in the middle of the exponential region of amplification. […]

[2] = tested on: second amniotic fluid-derived cell line; test: Two high dose trichostatin A treatments (first 48 h), gene expression by RT-PCR (Example 9); format: cell-based, human; details: 1.25 μM, following first treatment;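 further: lower cycle number means higher gene expression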
[3] = 24 hours following the addition

Q: What does the source list for `CC(/C=C/C(=O)NO)=C\[C@@H](C)C(=O)c1ccc(N(C)C)cc1` [trichostatin A]?
A: HNF (HNF-3 beta) gene expression ([1]; 24 hrs): +++ (detectable at less than 35 cycles by RT-PCR with SE less than 0.9); Insulin gene expression ([1]; 24 hrs): nd (not detectable at >40 cycles by RT-PCR); Pdx-1 gene expression ([1]; 24 hrs): +++ (detectable at less than 35 cycles by RT-PCR with SE less than 0.9); glucagon gene expression ([1]; 24 hrs): +++ (detectable at less than 35 cycles by RT-PCR with SE less than 0.9); HNF (HNF-3 beta) gene expression ([1]; 48 hrs): nd (not detectable at >40 cycles by RT-PCR); Insulin gene expression ([1]; 48 hrs): nd (not detectable at >40 cycles by RT-PCR); Pdx-1 gene expression ([1]; 48 hrs): nd (not detectable at >40 cycles by RT-PCR); glucagon gene expression ([1]; 48 hrs): + (detectable between 35 and 40 cycles by RT-PCR); HNF (HNF-3 beta) gene expression ([1]; 72 hrs): nd (not detectable at >40 cycles by RT-PCR); Insulin gene expression ([1]; 72 hrs): nd (not detectable at >40 cycles by RT-PCR); Pdx-1 gene expression ([1]; 72 hrs): nd (not detectable at >40 cycles by RT-PCR); glucagon gene expression ([1]; 72 hrs): nd (not detectable at >40 cycles by RT-PCR); HNF (HNF-3 beta) gene expression ([1]; 96 hrs): nd (not detectable at >40 cycles by RT-PCR); Insulin gene expression ([1]; 96 hrs): nd (not detectable at >40 cycles by RT-PCR); Pdx-1 gene expression ([1]; 96 hrs): nd (not detectable at >40 cycles by RT-PCR); glucagon gene expression ([1]; 96 hrs): nd (not detectable at >40 cycles by RT-PCR); HNF (HNF-3 beta) gene expression ([1]; 120 hrs): +++ (detectable at less than 35 cycles by RT-PCR with SE less than 0.9); Insulin gene expression ([1]; 120 hrs): nd (not detectable at >40 cycles by RT-PCR); Pdx-1 gene expression ([1]; 120 hrs): +++ (detectable at less than 35 cycles by RT-PCR with SE less than 0.9); glucagon gene expression ([1]; 120 hrs): + (detectable between 35 and 40 cycles by RT-PCR); HNF (HNF-3 beta) gene expression ([1]; 144 hrs): nd (not detectable at >40 cycles by RT-PCR); Insulin gene expression ([1]; 144 hrs): nd (not detectable at >40 cycles by RT-PCR); Pdx-1 gene expression ([1]; 144 hrs): nd (not detectable at >40 cycles by RT-PCR); glucagon gene expression ([1]; 144 hrs): + (detectable between 35 and 40 cycles by RT-PCR); HNF-3 beta RT-PCR detection cycle [1, 3]: 34 cycles; Pdx-1 RT-PCR detection cycle [1, 3]: 34 cycles; HNF-3 beta RT-PCR detection cycle ([1]; after the second addition): 33 cycles; Pdx-1 RT-PCR detection cycle ([1]; after the second addition): 33 cycles; glucagon RT-PCR detection cycle ([1]; after the second treatment cycle): 37 cycles; glucagon RT-PCR detection cycle ([1]; first 48 hours after addition): 34 cycles; Gata-1 RT-PCR detection cycle [2]: 38 cycles
